In US9096624B2 (OSI Pharmaceuticals, LLC, priority 2009, dated 2015):

Experiments:
[1] = biological target: T1, FAK (Homo sapiens, UniProt Q05397); assay: Biochemical HTRF (FRET) assay of FAK kinase activity; settings: 100 uM ATP; biotinylated PGT substrate; read-out: Mean FAK Biochem FRET IC50 (100 uM ATP)
Procedure: Biochemical HTRF (FRET) Assay Protocol
The ability of compounds to inhibit the kinase activity of recombinant FAK enzyme was determined by a HTRF (FRET) assay using Biotinylated PGT (B*PGT) as a peptide substrate. […] The reaction is stopped after 1 h and phosphotyrosine content of Biotin*PGT is measured using anti-phosphotyrosine specific Mab label with Eu3+-cryptate (Cisbio) and XL665 labeled streptavidin (Cisbio) by Homogeneous Time-Resolved Fluorescence (HTRF) method.
The Stock Reagents used are as follows:
Enzyme Buffer Reaction Buffer plus 0.03% BSA.
Development Buffer: 1 part 200 mM EDTA/50 mM Tris-HCl pH 7.4; 2 parts 1M KF; 0.07% BSA.
Assay Protocol: The compounds were serially diluted from 10 uM to […] (1:5 dil, 10 points) in kinase buffer (1×) containing 3% DMSO and added 5 uL to each well of a 384-well plate except negative and positive control wells. Only DMSO was added to positive and negative control wells. For negative control wells, no ATP was added but only 5 uL of B*PGT was added. B*PGT (final conc 7.5 ng/well) and ATP (final conc 100 uM) was added in 5 uL to all wells except negative control wells. Reaction was started by adding FAK enzyme (final conc 0.2 ng/well) in 5 ul of enzyme buffer per well and incubated at RT for 1 h. Phospho-tyrosine content of B*BGT was detected by adding PT66-Cryptate (1:100 dil) and XL665 conjugated streptavidin (1:100 dil) to each well in 7.5 uL development buffer and incubating for 1 h at RT. The plate was read on Victor machine

[2] = biological target: T1, FAK; assay: Cell-based capture ELISA for inhibition of FAK autophosphorylation [pY397] in MiaPaCa2 cells
Procedure: Cell-Based Assays for Inhibition of FAK Autophosphorylation: MiaPaCa2 and U87MG
ELISA kit from Invitrogen (KHO0441).
Reagents Provided in Biosource FAK [pY397]
The cells were then suspended in cell assay medium.

[3] = biological target: T1, FAK; assay: biochemical
[4] = MIA-PaCa2 cells on fibronectin, 2 h, no plasma, read-out: Mean FAK Cell Mechanistic IC50 MIA-PaCa2
[5] = MIA-PaCa2 cells, + 50% human plasma, read-out: Mean FAK Cell Mechanistic IC50 + 50% hP MIA-PaCa2

T1 sequence (Q05397 whole entry): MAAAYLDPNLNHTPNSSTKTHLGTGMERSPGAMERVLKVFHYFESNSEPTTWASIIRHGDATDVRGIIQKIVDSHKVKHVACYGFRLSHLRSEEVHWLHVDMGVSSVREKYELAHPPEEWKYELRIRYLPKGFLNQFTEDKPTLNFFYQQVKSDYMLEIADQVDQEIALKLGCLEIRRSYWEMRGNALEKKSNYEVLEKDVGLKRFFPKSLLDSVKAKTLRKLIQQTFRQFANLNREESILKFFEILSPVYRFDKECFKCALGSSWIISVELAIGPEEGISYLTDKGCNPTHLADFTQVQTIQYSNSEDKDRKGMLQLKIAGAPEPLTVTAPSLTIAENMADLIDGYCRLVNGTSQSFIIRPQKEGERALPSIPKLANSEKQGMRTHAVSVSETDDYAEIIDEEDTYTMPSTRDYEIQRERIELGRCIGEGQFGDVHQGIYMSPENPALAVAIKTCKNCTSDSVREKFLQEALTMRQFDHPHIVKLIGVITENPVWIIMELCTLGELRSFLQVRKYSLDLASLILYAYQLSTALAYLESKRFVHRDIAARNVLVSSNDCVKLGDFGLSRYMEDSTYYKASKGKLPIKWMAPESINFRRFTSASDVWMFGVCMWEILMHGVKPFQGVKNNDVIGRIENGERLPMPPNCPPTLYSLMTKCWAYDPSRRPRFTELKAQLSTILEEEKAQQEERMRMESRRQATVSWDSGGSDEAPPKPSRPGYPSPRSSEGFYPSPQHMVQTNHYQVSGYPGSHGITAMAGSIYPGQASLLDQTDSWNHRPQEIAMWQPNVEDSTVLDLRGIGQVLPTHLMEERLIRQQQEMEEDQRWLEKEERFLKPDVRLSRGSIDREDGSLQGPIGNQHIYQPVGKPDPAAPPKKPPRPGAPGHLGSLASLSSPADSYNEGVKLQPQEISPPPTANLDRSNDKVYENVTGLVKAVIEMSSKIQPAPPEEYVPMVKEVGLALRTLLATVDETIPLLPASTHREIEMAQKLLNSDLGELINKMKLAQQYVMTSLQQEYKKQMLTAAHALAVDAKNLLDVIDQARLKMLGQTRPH

Compound | IC50 [1] | IC50 [2, 4] | IC50 [2, 5] | IC50 [3]
CCOP(=O)(Cc1cccc(Nc2ncc(C(F)(F)F)c(NCc3cccnc3N(C)S(C)(=O)=O)n2)c1)OCC [Example 4, Diethyl [3-({4-[({2-[methyl(methylsulfonyl)amino]pyridin-3-yl}methyl)amino]-5-(trifluoromethyl)pyrimidin-2-yl}amino)benzyl]phosphonate] | 1000 to 10000 nM | 1000 to 10000 nM | 1000 to 10000 nM | < 1000 nM
CN(c1ncccc1CNc1nc(Nc2ccc(P(=O)(O)O)cc2)ncc1C(F)(F)F)S(C)(=O)=O [Example 6, [4-({4-[({2-[Methyl(methylsulfonyl)amino]pyridin-3-yl}methyl)amino]-5-(trifluoromethyl)pyrimidin-2-yl}amino)phenyl]phosphonic acid] | < 1000 nM | 1000 to 10000 nM |  | < 1000 nM
CCOP(=O)(Cc1ccc(Nc2ncc(C(F)(F)F)c(NCc3cccnc3N(C)S(C)(=O)=O)n2)cc1)OCC [Example 1, diethyl [4-({4-[({2-[methyl(methylsulfonyl)amino]pyridin-3-yl}methyl)amino]-5-(trifluoromethyl)pyrimidin-2-yl}amino)benzyl]phosphonate] | < 1000 nM | < 1000 nM | < 1000 nM | < 1000 nM
